# Experiment: Stability of azithromycin during the preparation steps (survival rate of AZT after preparation, HPLC)
# Assay type: physicochemical
# Details: pH of the azithromycin-containing aqueous solution less than 4.0
# Method: Stability of the azithromycin-containing aqueous pharmaceutical compositions prepared in the above Examples and Comparative Examples were evaluated in terms of azithromycin concentration in the composition.
# The compositions (Examples 1 to 8 and Comparative Examples 1 and 2) were packed in glass vial, sealed with a lid, and stored at 60° C. for one and two weeks. Then, azithromycin concentration in the composition just after packed in the glass vial and after the storage at 60° C. was determined by HPLC. Stability was evaluated as follows.
# First, the azithromycin content added was compared with the azithromycin content in the composition just after packed in the glass vial to evaluate stability of azithromycin during the preparation steps. This is expressed by a survival rate of AZT after preparation wherein AZT means azithromycin.
# The same procedures in Test Example 1 were repeated to evaluate stability of the compositions of Examples 9 to 12 and Comparative Example 3.
# The similar procedures to Test Example 1 were repeated to evaluate stability of the compositions of Examples 18 to 20.
structure (smiles),measurement,value
CC[C@H]1OC(=O)[C@H](C)[C@@H](O[C@H]2C[C@@](C)(OC)[C@@H](O)[C@H](C)O2)[C@H](C)[C@@H](O[C@@H]2O[C@H](C)C[C@H](N(C)C)[C@H]2O)[C@](C)(O)C[C@@H](C)CN(C)[C@H](C)[C@@H](O)[C@]1(C)O [azithromycin],decomposition of azithromycin in aqueous solution,decomposed
